These results are taken from patent US9862730B2, “Imidazothiadiazole derivatives as protease activated receptor 4 (PAR4) inhibitors for treating platelet aggregation” (BRISTOL-MYERS SQUIBB COMPANY, priority 2012, dated 2018).

Usually IC50 stands for the concentration that gives 50% inhibition.

This experiment deals with PAR4 (Homo sapiens (Human), UniProt Q96RI0). Kind of experiment: FLIPR assay in PAR4-expressing HEK293 cells (PAR4 antagonist activity, calcium mobilization). Format: cell-based. To be noted: FLIPR assay as described in Example A. The essentials: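 Calcium-flux antagonist readout: compounds preincubated 30 min at room temperature with PAR4-transfected HEK293 cells in HBSS with 10 mM HEPES (0.67% DMSO final), then agonist peptide added. Agonist activity checked on compound addition; cells carry endogenous PAR1.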
PAR4, sequence (Q96RI0 18-385): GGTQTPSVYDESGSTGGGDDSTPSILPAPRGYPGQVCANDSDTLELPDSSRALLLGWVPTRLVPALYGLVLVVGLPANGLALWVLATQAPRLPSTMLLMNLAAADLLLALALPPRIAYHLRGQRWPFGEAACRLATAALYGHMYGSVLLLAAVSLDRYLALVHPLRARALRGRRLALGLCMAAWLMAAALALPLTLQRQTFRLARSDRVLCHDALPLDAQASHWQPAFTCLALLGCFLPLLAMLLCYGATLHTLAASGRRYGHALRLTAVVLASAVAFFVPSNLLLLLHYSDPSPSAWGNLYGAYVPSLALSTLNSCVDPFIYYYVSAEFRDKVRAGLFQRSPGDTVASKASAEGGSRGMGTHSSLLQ
A general note: A change in cytosolic calcium serves as a functional read-out for many receptors and channels.
Turning to `COc1cc(OCc2cccc(OCc3ccccc3Cl)c2)c2cc(-c3cn4nc(OC)sc4n3)oc2c1` [Example 362], the IC50 turned out to be 0.00124 µM. Take `CCCOc1ccc2nc(-c3cn4nc(CC)sc4n3)oc2c1` [Example 51]: the concentration for half-maximal inhibition (IC50) worked out at 0.394 µM. In the case of `COc1nn2cc(-c3cc4ccc(OCc5ccccc5)cc4o3)nc2s1` [Example 104] it was 0.0262 µM; in that of `Clc1cc(Cl)c2cc(-c3cn4nc(Br)sc4n3)oc2c1` [Example 288], 0.0941 µM; in that of `COc1nn2cc(-c3cc4cc(C)ccc4o3)nc2s1` [Example 95], 0.00689 µM. In the case of `COc1nn2cc(-c3cc4cccc(OC)c4o3)nc2s1` [Example 35] it was 0.00765 µM; in that of `COc1nn2cc(-c3cc4c(OCc5ccccc5)cc(OC)c(Br)c4o3)nc2s1` [Example 226, 6-(4-(Benzyloxy)-7-bromo-6-methoxybenzofuran-2-yl)-2-methoxyimidazo[2,1-b][1,3,4]thiadiazole], 0.591 µM.

As to `CSc1nn2cc(-c3cc4ccc(C(=O)NCc5ccccc5)cc4o3)nc2s1` [Example 220, N-Benzyl-2-(2-(methylthio)imidazo[2,1-b][1,3,4]thiadiazol-6-yl)benzofuran-6-carboxamide], the half-inhibitory concentration (IC50) was 0.307 µM. For `CCc1nn2cc(-c3cc4cccc(OCC#N)c4o3)nc2s1` [Example 53], the IC50 was 0.149 µM. Then `COc1ccc(COc2cccc3oc(-c4cn5nc(SC)sc5n4)nc23)cc1` [Example 172], with 0.814 µM; and `CSc1nn2cc(-c3cc4cccc(F)c4o3)nc2s1` [Example 257], with 0.0502 µM; and `CC(F)c1nn2cc(-c3cc4ccccc4o3)nc2s1` (stereo not drawn) [Example 247], with 0.0479 µM. In the case of `COc1ccc2oc(-c3cn4nc(OC)sc4n3)nc2c1` [Example 142] it was 0.0278 µM.

For the compound `COc1nn2cc(-c3nc4cc(C(C)(C)C)ccc4o3)nc2s1` [Example 134], the IC50 was found to be 0.321 µM. As for `CCc1nn2cc(-c3cc4ccccc4o3)nc2s1` [Example 47], the IC50 came out at 0.068 µM.

With `COc1cc(COc2cccc(COc3cc(OC)cc4oc(-c5cn6nc(OC)sc6n5)cc34)c2)cc(OC)c1` [Example 390], the half-inhibitory concentration (IC50) stood at 0.0016 µM.

On to `COc1nn2cc(-c3nc4cc(F)ccc4s3)nc2s1` [Example 194], for which the IC50 came to 0.00964 µM. In the case of `CC(F)(F)c1nn2cc(-c3cc4ccc(OCc5ccccc5)cc4o3)nc2s1` [Example 241] it was 0.29 µM. In the case of `COc1cc(Br)cc2cc(-c3cn4nc(SC)sc4n3)oc12` [Example 284] it was 0.139 µM; in that of `CSc1nn2cc(-c3nc4c(C)cc(Cl)cc4s3)nc2s1` [Example 192], 0.99 µM.

Take `COc1cc2oc(-c3cn4nc([C@H](C)F)sc4n3)cc2cc1Cl` [270-1]: the half-inhibitory concentration (IC50) stood at 0.00953 µM.

Take `Cc1cc2oc(-c3cn4nc(C(C)(F)F)sc4n3)cc2cc1Cl` [Example 274]: the IC50 amounted to 1.97 µM.

As for `COc1nn2cc(-c3cc4ccc(F)cc4o3)nc2s1` [Example 96], the half-inhibitory concentration (IC50) was 0.00792 µM.

As to `CSc1nn2cc(-c3cc4c(OCc5ccc(F)cc5)cccc4o3)nc2s1` [Example 249], the IC50 came out at 0.0194 µM. As for `CCc1nn2cc(-c3cc4cccc(OC)c4o3)nc2s1` [Example 37], the half-inhibitory concentration (IC50) came out at 0.00851 µM. In the case of `COc1nn2cc(-c3cc4c(OCc5cccc(OCc6ccccc6)c5)cc(OC(F)F)cc4o3)nc2s1` [Example 416, 6-(4-((3-(Benzyloxy)benzyl)oxy)-6-(difluoromethoxy)benzofuran-2-yl)-2-methoxyimidazo[2,1-b][1,3,4]thiadiazole] it was 0.00109 µM; in that of `COc1nn2cc(-c3cc4cc(Cl)ccc4o3)nc2s1` [Example 91], 0.0191 µM.

Consider `COc1nn2cc(-c3cc4cccc(OC)c4o3)nc2s1` [Example 9, 2-Methoxy-6-(7-methoxybenzofuran-2-yl)imidazo[2,1-b][1,3,4]thiadiazole], for which the 50% inhibitory concentration (IC50) is 0.224 µM.

Turning to `COc1cc(OCc2ccccc2)c2cc(-c3cn4nc(SC)sc4n3)oc2c1` [Example 227-228], the half-maximal inhibitory concentration (IC50) was 0.00405 µM.

On to `CCc1nn2cc(-c3cc4cccc(O)c4o3)nc2s1` [Example 59], for which the half-maximal inhibitory concentration (IC50) was 0.288 µM. Then `Cc1ccc2oc(-c3cn4nc(C(C)(F)F)sc4n3)cc2c1` [Example 232], with 0.152 µM; and `COc1cc(OC[C@@H]2CCCN2C(=O)OC(C)(C)C)c2cc(-c3cn4nc(OC)sc4n3)oc2c1` [Example 342-343], with 0.253 µM. Then `CCc1cccc2cc(-c3cn4nc(OC)sc4n3)oc12` [Example 92], with 0.013 µM; and `COc1cc(OCc2cccc(OCc3ccccc3I)c2)c2cc(-c3cn4nc(OC)sc4n3)oc2c1` [Example 379], with 0.00784 µM.

In the case of `FC(F)(Cl)c1nn2cc(-c3cc4ccccc4o3)nc2s1` [Example 209, 6-(Benzofuran-2-yl)-2-(chlorodifluoromethyl)imidazo[2,1-b][1,3,4]thiadiazole], the half-inhibitory concentration (IC50) amounted to 0.442 µM. On to `CCc1nn2cc(-c3nc4cc(C)cc(C)c4o3)nc2s1` [Example 58], for which the IC50 stood at 0.565 µM. Then `COc1cc(OC)c2cc(-c3cn4nc(C(C)(F)F)sc4n3)oc2c1Br` [Example 225, 6-(7-Bromo-4,6-dimethoxybenzofuran-2-yl)-2-(1,1-difluoroethyl)imidazo[2,1-b][1,3,4]thiadiazole], with 0.3 µM; and `COc1cc(OCc2cccc(OCc3c(F)ccc(F)c3F)c2)c2cc(-c3cn4nc(OC)sc4n3)oc2c1` [Example 330], with 0.00262 µM.

Take `COCOc1ccc2nc(-c3cn4nc(SC)sc4n3)oc2c1` [Example 162]: the concentration for half-maximal inhibition (IC50) is 0.171 µM. Then `COc1cc(OCc2cccc(OCc3ccccc3Br)c2)c2cc(-c3cn4nc(OC)sc4n3)oc2c1` [Example 360], with 0.00247 µM. For `COc1cc(OCc2cccc(OCc3ccc(C)c(Cl)c3)c2)c2cc(-c3cn4nc(OC)sc4n3)oc2c1` [Example 324], the IC50 stood at 0.00352 µM. Turning to `Fc1ccc2sc(-c3cn4nc(Br)sc4n3)nc2c1` [Example 193], the concentration for half-maximal inhibition (IC50) was 1.04 µM.

Turning to `CCc1nn2cc(-c3nc4ccc(OCC5CC5)cc4o3)nc2s1` [Example 74], the IC50 was found to be 0.681 µM. Consider `COc1cc(OC)c2cc(-c3cn4nc(C(C)(F)F)sc4n3)oc2c1` [Example 242], for which the half-inhibitory concentration (IC50) turned out to be 0.0505 µM. Then `COc1nn2cc(-c3nc4c(OC(F)(F)F)cccc4s3)nc2s1` [Example 195], with 2.42 µM. With `COc1cc(OCc2cccc(OCc3ccc(OCc4ccccc4)c(OC)c3)c2)c2cc(-c3cn4nc(OC)sc4n3)oc2c1` [Example 357], the IC50 was 0.00492 µM. Consider `Cc1ccc2cc(-c3cn4nc(C(F)(F)Cl)sc4n3)oc2c1` [Example 244], for which the half-maximal inhibitory concentration (IC50) stood at 0.383 µM. Regarding `COc1cc2oc(-c3cn4nc([C@H](C)F)sc4n3)cc2cc1Cl` [270B], the IC50 is 0.00337 µM. `Cc1ccc2cc(-c3cn4nc(C(C)(F)F)sc4n3)oc2c1` [Example 233]: the IC50 is 0.0157 µM.

On to `COc1cc(OC)c2cc(-c3cn4nc(Br)sc4n3)oc2c1` [Example 294], for which the IC50 stood at 0.0195 µM. Then `Clc1nccc2oc(-c3cn4nc(Br)sc4n3)cc12` [Example 222, 2-(2-Bromoimidazo[2,1-b][1,3,4]thiadiazol-6-yl)-4-chlorofuro[3,2-c]pyridine], with 0.464 µM. For `COc1cc(OC(C)C)c2cc(-c3cn4nc(OC)sc4n3)oc2c1` [Example 300], the IC50 stood at 0.00343 µM. In the case of `COc1ccc(OC)c2oc(-c3cn4nc(SC)sc4n3)cc12` [Example 105] it was 0.0114 µM; in that of `COc1nn2cc(-c3cc4c(OC)ccc(OC)c4o3)nc2s1` [Example 103], 0.0107 µM; in that of `Fc1cccc2cc(-c3cn4nc(Br)sc4n3)oc12` [Example 259], 0.323 µM. `Cc1nn2cc(-c3cc4ccccc4o3)nc2s1` [Example 41]: the IC50 came out at 0.0186 µM. Then `COCOc1c(Br)ccc2oc(-c3cn4nc(OC)sc4n3)cc12` [Example 217A, 6-(5-Bromo-4-(methoxymethoxy)benzofuran-2-yl)-2-methoxyimidazo[2,1-b][1,3,4]thiadiazole], with 0.0451 µM; and `CCc1nn2cc(-c3nc4ccc(OCCC(C)C)cc4o3)nc2s1` [Example 77], with 1.37 µM. Turning to `CSc1nn2cc(-c3nc4ccccc4s3)nc2s1` [Example 4, 2-(2-(Methylthio)imidazo[2,1-b][1,3,4]thiadiazol-6-yl)benzo[d]thiazole], the IC50 is 0.0129 µM. With `COCCOc1cccc2oc(-c3cn4nc(SC)sc4n3)cc12` [Example 268], the IC50 was 0.0218 µM. As for `CCc1nn2cc(-c3nc4ccc(OCc5ccccc5)cc4o3)nc2s1` [Example 67], the IC50 was 0.103 µM. In the case of `COc1ccc2oc(-c3cn4nc(OC)sc4n3)cc2c1` [Example 93] it was 0.222 µM. In the case of `COc1nn2cc(-c3cc4cc(Cl)c(OC)cc4o3)nc2s1` [Example 201, 2-Methoxy-6-(5-chloro-6-methoxybenzofuran-2-yl)imidazo[2,1-b][1,3,4]thiadiazole] it was 0.00438 µM; in that of `CSc1nn2cc(-c3cc4c(OCc5cccnc5)cccc4o3)nc2s1` [Example 216, 2-(Methylthio)-6-(4-(pyridin-3-ylmethoxy)benzofuran-2-yl) imidazo[2,1-b][1,3,4]thiadiazole], 0.482 µM; in that of `COc1cccc2sc(-c3cn4nc(SC)sc4n3)nc12` [Example 6, 4-Methoxy-2-(2-(methylthio)imidazo[2,1-b][1,3,4]thiadiazol-6-yl)benzo[d]thiazole], 0.618 µM. Turning to `CSc1nn2cc(-c3nc4cc(Cl)ccc4o3)nc2s1` [Example 125], the 50% inhibitory concentration (IC50) worked out at 0.206 µM. For `CSc1nn2cc(-c3nc4cc(F)ccc4s3)nc2s1` [Example 182, 5-Fluoro-2-(2-(methylthio)imidazo[2,1-b][1,3,4]thiadiazol-6-yl)benzo[d]thiazole], the concentration for half-maximal inhibition (IC50) came out at 0.0194 µM.

On to `COc1cc(OCc2ccc(OC)c(OCc3ccccc3)c2)c2cc(-c3cn4nc(OC)sc4n3)oc2c1` [Example 351], for which the IC50 worked out at 0.00223 µM.

With `COc1cc(OCc2cccc(OCc3ccc(OC)c(OC)c3Cl)c2)c2cc(-c3cn4nc(OC)sc4n3)oc2c1` [Example 361], the half-maximal inhibitory concentration (IC50) came out at 0.00135 µM.
